From ChEMBL document CHEMBL5465560, “Selectivity Literature for EUbOPEN Chemogenomic Library” (2024)

What was measured:
[1] = target: Histone-lysine N-methyltransferase, H3 lysine-36 specific (Homo sapiens) (UniProt Q96L73); test: Selectivity interaction (Methyltransferase screen (radiometric assays, panel of 8 PRMTs, 21 protein lysine methyltransferases, 3 DNA methyltransferases, and one RNA methyltransferase)) EUB0000272b NSD1; conditions: at 10 µM
[2] = target: T1, Receptor-interacting serine/threonine-protein kinase 4 (Homo sapiens) (UniProt P57078); test: Selectivity interaction (KinomeScan (DiscoverX)) EUB0000655a RIPK4; conditions: at 10 µM
T1 sequence (whole entry): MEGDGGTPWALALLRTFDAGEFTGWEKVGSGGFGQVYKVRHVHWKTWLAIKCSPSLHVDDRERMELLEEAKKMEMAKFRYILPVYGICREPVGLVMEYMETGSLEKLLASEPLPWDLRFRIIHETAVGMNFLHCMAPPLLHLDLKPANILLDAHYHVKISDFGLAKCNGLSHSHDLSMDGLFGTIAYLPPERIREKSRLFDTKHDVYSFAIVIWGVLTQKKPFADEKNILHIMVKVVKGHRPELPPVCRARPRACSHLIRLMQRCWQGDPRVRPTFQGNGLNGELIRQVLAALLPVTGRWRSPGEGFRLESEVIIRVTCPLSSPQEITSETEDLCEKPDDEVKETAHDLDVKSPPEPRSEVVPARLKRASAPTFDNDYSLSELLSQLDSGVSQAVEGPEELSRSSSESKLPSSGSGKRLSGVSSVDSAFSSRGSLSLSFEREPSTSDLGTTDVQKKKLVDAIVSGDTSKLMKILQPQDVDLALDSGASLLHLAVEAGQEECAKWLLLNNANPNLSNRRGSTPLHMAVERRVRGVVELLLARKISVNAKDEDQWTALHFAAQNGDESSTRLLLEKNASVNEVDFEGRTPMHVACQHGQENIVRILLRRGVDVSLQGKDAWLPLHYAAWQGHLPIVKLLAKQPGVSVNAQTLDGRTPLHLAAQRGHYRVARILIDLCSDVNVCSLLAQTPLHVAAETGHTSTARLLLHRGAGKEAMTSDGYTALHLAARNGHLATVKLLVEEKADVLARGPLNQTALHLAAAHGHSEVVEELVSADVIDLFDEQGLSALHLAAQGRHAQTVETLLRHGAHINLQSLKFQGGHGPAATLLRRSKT

[3] = target: Calcium/calmodulin-dependent protein kinase type 1D (Homo sapiens) (UniProt Q8IU85); test: Selectivity interaction (KinomeScan (DiscoverX)) EUB0000655a CAMK1D; conditions: at 10 µM
Chain of Calcium/calmodulin-dependent protein kinase type 1D (Homo sapiens) (Q8IU85 whole entry, looked up): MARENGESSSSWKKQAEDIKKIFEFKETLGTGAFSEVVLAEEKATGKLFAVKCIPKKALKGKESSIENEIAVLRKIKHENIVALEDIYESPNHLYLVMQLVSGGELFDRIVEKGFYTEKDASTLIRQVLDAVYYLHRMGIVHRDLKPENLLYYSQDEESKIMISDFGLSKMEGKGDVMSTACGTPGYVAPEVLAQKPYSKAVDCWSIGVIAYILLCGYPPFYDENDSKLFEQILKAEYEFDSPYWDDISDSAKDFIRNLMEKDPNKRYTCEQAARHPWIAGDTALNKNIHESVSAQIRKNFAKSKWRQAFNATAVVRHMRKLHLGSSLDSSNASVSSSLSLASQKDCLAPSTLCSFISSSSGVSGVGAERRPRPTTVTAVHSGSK

[4] = target: T2, Mitogen-activated protein kinase kinase kinase kinase 2 (Homo sapiens) (UniProt Q12851); test: Selectivity interaction (KinomeScan (DiscoverX)) EUB0001079a MAP4K2; conditions: at 1 µM
T2 sequence (whole entry): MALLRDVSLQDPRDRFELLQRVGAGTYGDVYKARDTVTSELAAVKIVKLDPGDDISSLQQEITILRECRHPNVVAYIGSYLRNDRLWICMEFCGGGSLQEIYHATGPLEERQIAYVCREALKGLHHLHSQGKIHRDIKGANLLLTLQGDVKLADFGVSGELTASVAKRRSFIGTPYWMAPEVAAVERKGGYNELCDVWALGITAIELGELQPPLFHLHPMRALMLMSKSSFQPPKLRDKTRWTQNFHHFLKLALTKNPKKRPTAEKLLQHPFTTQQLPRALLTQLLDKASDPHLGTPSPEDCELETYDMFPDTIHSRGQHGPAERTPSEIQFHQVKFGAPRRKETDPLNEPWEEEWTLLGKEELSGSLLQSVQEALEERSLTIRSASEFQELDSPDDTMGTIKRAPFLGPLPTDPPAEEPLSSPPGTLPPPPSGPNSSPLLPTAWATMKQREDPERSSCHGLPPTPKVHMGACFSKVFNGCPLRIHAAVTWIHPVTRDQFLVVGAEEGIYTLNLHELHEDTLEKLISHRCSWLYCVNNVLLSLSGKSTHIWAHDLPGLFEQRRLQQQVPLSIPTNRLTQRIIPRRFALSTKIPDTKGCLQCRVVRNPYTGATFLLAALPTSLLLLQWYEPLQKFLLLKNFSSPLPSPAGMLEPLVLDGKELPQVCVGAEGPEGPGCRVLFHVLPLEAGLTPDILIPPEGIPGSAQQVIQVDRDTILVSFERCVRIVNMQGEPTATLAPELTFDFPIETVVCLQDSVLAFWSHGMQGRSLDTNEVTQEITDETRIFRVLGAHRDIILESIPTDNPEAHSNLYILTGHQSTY

[5] = target: T3, Inhibitor of nuclear factor kappa-B kinase subunit alpha (Homo sapiens) (UniProt O15111); conditions: at 10 µM
T3 sequence (whole entry): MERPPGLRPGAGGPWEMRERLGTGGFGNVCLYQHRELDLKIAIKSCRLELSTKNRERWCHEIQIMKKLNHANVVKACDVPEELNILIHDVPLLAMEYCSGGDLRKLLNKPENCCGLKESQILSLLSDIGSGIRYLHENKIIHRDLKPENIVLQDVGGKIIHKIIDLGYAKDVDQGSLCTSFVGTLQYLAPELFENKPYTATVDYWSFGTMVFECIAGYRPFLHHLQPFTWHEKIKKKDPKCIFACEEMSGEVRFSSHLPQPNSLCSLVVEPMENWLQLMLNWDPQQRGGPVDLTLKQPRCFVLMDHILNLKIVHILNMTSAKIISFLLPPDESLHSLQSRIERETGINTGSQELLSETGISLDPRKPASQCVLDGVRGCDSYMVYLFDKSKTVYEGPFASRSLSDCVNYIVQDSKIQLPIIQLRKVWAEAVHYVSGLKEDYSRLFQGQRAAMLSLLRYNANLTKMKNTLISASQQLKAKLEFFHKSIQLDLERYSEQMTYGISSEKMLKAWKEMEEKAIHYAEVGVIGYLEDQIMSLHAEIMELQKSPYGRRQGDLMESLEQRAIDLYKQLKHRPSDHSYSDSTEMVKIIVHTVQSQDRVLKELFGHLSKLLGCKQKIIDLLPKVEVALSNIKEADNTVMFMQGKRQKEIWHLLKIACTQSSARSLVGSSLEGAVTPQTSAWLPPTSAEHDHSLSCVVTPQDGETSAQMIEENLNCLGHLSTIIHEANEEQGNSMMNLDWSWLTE

[6] = target: 5'-AMP-activated protein kinase catalytic subunit alpha-2 (Homo sapiens) (UniProt P54646); test: Selectivity interaction (KinomeScan (DiscoverX)) EUB0000618a PRKAA2; conditions: at 10 µM
Chain of 5'-AMP-activated protein kinase catalytic subunit alpha-2 (Homo sapiens) (P54646 whole entry, looked up): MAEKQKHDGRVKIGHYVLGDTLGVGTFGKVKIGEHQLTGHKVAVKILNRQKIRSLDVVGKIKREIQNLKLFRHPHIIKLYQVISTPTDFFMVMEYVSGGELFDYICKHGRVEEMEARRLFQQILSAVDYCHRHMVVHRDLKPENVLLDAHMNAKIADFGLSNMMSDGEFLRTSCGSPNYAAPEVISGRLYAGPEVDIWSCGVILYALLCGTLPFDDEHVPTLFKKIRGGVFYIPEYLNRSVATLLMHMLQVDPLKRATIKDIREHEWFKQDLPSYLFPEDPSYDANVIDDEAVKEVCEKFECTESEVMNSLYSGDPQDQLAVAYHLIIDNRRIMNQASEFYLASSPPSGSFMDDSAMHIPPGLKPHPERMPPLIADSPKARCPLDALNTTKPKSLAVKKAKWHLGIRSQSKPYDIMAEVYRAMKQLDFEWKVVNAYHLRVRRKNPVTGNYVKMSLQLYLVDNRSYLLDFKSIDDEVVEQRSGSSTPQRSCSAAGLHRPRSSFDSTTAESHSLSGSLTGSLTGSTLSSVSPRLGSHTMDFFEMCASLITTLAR

[7] = target: Cyclin-dependent kinase 7 (Homo sapiens, UniProt P50613); test: Selectivity interaction (KinomeScan (DiscoverX)) EUB0001619a CDK7; conditions: at 1 µM
Chain of Cyclin-dependent kinase 7 (P50613 whole entry): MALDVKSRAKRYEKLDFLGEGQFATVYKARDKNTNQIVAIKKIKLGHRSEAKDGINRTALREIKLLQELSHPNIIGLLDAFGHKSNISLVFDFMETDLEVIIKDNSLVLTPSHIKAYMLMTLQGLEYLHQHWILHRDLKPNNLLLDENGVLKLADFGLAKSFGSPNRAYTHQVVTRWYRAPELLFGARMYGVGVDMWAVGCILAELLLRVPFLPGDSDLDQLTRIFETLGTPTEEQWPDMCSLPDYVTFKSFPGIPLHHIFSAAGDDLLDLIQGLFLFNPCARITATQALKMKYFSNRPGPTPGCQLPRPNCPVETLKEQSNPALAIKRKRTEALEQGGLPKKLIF

Chain of Histone-lysine N-methyltransferase, H3 lysine-36 specific (Homo sapiens) (Q96L73 whole entry): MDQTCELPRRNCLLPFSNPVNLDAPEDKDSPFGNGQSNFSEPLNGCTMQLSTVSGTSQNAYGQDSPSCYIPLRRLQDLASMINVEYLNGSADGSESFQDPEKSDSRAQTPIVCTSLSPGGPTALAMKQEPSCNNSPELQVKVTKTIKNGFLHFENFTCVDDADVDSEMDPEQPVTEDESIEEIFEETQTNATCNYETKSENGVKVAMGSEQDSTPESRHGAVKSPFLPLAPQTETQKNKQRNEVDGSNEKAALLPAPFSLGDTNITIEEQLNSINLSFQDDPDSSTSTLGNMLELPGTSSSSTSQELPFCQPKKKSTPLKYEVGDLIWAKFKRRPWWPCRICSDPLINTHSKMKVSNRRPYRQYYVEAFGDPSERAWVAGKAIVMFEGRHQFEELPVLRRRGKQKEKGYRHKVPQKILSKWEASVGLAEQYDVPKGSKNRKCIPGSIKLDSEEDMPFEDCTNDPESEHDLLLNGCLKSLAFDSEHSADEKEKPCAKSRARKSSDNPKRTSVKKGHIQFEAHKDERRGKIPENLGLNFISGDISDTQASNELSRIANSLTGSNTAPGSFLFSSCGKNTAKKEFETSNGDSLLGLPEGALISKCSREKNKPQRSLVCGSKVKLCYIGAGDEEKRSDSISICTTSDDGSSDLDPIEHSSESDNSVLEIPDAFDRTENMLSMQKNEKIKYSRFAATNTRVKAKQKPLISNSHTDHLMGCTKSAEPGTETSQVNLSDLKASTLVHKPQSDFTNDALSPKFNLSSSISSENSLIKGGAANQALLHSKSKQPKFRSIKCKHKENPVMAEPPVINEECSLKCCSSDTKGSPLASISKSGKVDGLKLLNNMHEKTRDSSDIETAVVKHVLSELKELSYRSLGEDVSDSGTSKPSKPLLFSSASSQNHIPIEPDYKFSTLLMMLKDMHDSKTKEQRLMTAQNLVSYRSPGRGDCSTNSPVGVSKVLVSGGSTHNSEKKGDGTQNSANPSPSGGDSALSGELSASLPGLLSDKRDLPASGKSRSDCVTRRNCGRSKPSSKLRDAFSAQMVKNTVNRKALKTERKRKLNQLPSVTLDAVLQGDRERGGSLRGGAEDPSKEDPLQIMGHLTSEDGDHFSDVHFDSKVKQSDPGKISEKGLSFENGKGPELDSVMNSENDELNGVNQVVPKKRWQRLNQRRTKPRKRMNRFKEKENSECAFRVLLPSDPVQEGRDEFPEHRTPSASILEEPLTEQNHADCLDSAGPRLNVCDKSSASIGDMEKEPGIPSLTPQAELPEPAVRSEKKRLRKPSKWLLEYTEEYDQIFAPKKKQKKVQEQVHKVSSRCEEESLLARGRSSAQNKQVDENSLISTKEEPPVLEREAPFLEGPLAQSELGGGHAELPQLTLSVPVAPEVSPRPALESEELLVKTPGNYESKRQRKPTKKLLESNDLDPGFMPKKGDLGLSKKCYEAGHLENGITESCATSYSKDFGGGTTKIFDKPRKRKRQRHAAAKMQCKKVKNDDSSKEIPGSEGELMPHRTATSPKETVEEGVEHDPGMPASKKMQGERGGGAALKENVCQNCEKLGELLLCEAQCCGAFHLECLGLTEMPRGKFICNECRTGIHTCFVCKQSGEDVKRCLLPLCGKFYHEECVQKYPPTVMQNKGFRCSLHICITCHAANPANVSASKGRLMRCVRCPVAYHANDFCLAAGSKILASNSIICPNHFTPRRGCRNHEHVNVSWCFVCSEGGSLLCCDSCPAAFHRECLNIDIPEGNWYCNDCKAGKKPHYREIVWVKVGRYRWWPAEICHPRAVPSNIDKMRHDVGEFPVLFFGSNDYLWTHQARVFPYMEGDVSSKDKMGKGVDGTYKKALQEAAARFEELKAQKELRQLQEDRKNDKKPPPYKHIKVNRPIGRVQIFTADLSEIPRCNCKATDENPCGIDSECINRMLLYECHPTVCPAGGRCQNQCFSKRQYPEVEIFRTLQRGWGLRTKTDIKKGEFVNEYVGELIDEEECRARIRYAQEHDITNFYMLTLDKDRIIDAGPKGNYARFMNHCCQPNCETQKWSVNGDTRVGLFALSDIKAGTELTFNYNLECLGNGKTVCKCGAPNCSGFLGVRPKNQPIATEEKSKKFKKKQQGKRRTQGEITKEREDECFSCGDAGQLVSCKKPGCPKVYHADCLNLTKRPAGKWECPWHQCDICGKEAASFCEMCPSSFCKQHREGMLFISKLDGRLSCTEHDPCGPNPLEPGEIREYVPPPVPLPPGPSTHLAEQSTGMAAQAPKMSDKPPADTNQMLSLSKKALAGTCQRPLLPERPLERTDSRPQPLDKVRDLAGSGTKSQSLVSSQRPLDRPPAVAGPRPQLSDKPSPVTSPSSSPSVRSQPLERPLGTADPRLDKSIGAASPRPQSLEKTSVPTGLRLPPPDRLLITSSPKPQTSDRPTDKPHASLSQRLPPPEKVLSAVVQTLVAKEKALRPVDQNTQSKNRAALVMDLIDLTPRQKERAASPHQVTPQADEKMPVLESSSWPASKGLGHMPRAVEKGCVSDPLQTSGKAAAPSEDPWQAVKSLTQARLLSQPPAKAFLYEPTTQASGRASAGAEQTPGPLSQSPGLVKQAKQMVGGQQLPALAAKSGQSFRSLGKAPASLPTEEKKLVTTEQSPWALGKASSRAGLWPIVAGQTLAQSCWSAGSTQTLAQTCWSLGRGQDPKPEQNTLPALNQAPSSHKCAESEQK

## Cc1cc(C)cc([C@H]2c3cc(C)ccc3NC(=O)CN2C(=O)c2ccc(Br)s2)c1
[1]
  % of activity: 104%

## CN(C)CCOc1ccc(-c2nc(-c3ccncc3)c(-c3ccc4c(c3)CC/C4=N\O)[nH]2)cc1
[2]
  % of control: 100%
[3]
  % of control: 100%

## Nc1cnc(N2CCc3cc(S(=O)(=O)Nc4c(F)cc(Cl)cc4F)cc(N4CCCC4=O)c32)nc1 [TP-020n]
[4]
  % of control: 90%

## Cc1cc([C@@H](C)Nc2ccccc2C(=O)O)c2nc(N3CCOCC3)cc(=O)n2c1 [AZD-6482]
[5]
  % of control: 100%

## O[C@H]1CC[C@H](Nc2ncc3nc(Nc4c(F)cc(F)cc4F)n([C@H]4CCOC4)c3n2)CC1
[6]
  % of control: 100%

## N#Cc1cccc(-c2c[nH]c3ncnc(N4CCOCC4)c23)c1
[7]
  % of control: 81%
